Source: PubChem BioAssay (NCI)
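Results reflect a 48-hour exposure of cells in 96-well plates to compound at five concentrations. Definition used: TGI = concentration required for complete inhibition of growth.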

Assays:
Test in all cases: NCI anticancer screen, dose series, 48 h
786-0 renal = system: 786-0 renal
A498 renal = system: A498 renal
A549 NSCLC = system: A549 NSCLC
ACHN renal = system: ACHN renal
BT-549 breast = system: BT-549 breast
CAKI-1 renal = system: CAKI-1 renal
CCRF-CEM leukemia = system: CCRF-CEM leukemia
COLO 205 colon = system: COLO 205 colon
DU-145 prostate = system: DU-145 prostate
EKVX NSCLC = system: EKVX NSCLC
HCC-2998 colon = system: HCC-2998 colon
HCT-116 colon = system: HCT-116 colon
HCT-15 colon = system: HCT-15 colon
HL-60(TB) leukemia = system: HL-60(TB) leukemia
HOP-62 NSCLC = system: HOP-62 NSCLC
HOP-92 NSCLC = system: HOP-92 NSCLC
HS 578T breast = system: HS 578T breast
HT29 colon = system: HT29 colon
IGROV1 ovarian = system: IGROV1 ovarian
K-562 leukemia = system: K-562 leukemia
KM12 colon = system: KM12 colon
LOX IMVI melanoma = system: LOX IMVI melanoma
M14 melanoma = system: M14 melanoma
MALME-3M melanoma = system: MALME-3M melanoma
MCF7 breast = system: MCF7 breast
MDA-MB-231 breast = system: MDA-MB-231 breast
MDA-MB-435 = system: MDA-MB-435
MDA-N = system: MDA-N
MOLT-4 leukemia = system: MOLT-4 leukemia
NCI-H226 lung = system: NCI-H226 lung
NCI-H23 lung = system: NCI-H23 lung
NCI-H460 lung = system: NCI-H460 lung
NCI/ADR-RES ovarian = system: NCI/ADR-RES ovarian
OVCAR-3 ovarian = system: OVCAR-3 ovarian
OVCAR-4 ovarian = system: OVCAR-4 ovarian
OVCAR-5 ovarian = system: OVCAR-5 ovarian
OVCAR-8 ovarian = system: OVCAR-8 ovarian
PC-3 prostate = system: PC-3 prostate
RPMI-8226 leukemia = system: RPMI-8226 leukemia
RXF 393 renal = system: RXF 393 renal
SF-268 CNS = system: SF-268 CNS
SF-295 CNS = system: SF-295 CNS
SF-539 CNS = system: SF-539 CNS
SK-MEL-2 melanoma = system: SK-MEL-2 melanoma
SK-MEL-28 melanoma = system: SK-MEL-28 melanoma
SK-MEL-5 melanoma = system: SK-MEL-5 melanoma
SK-OV-3 ovarian = system: SK-OV-3 ovarian
SN12C renal = system: SN12C renal
SNB-19 CNS = system: SNB-19 CNS
SNB-75 CNS = system: SNB-75 CNS
SR leukemia = system: SR leukemia
SW-620 colon = system: SW-620 colon
TK-10 renal = system: TK-10 renal
U251 CNS = system: U251 CNS
UACC-257 melanoma = system: UACC-257 melanoma
UACC-62 melanoma = system: UACC-62 melanoma
UO-31 renal = system: UO-31 renal
T-47D breast = system: T-47D breast

For CC(C)CC(N)C(=O)NC(CNC(CCC(N)=O)C(=O)NC(CC(C)C)C(=O)NC(CC(C)C)C(=O)O)Cc1ccc2ccccc2c1 (stereo not given), which TGI (786-0 renal) is on record?
Its TGI is > 10 µM.

And the TGI (A498 renal)?
Its TGI is > 10 µM.

And the TGI (A549 NSCLC)?
The TGI was > 10 µM.

What about the TGI (ACHN renal) of the same compound?
The TGI was > 10 µM.

What about the TGI (BT-549 breast) of the same compound?
The TGI was > 10 µM.

And the TGI (CAKI-1 renal)?
Its TGI is > 10 µM.

And the TGI (CCRF-CEM leukemia)?
Its TGI is > 10 µM.

What about the TGI (COLO 205 colon) of the same compound?
Its TGI is > 10 µM.

What about the TGI (DU-145 prostate) of the same compound?
Its TGI is > 10 µM.

What about the TGI (EKVX NSCLC) of the same compound?
Its TGI is > 10 µM.

And the TGI (HCC-2998 colon)?
Its TGI is > 10 µM.

What about the TGI (HCT-116 colon) of the same compound?
The TGI was > 10 µM.

And the TGI (HCT-15 colon)?
The TGI was > 10 µM.

What about the TGI (HL-60(TB) leukemia) of the same compound?
The TGI was > 10 µM.

What about the TGI (HOP-62 NSCLC) of the same compound?
The TGI was > 10 µM.

What about the TGI (HOP-92 NSCLC) of the same compound?
Its TGI is > 10 µM.

What about the TGI (HS 578T breast) of the same compound?
Its TGI is > 10 µM.

And the TGI (HT29 colon)?
The TGI was > 10 µM.

What about the TGI (IGROV1 ovarian) of the same compound?
Its TGI is > 10 µM.

And the TGI (K-562 leukemia)?
The TGI was > 10 µM.

And the TGI (KM12 colon)?
The TGI was > 10 µM.

What about the TGI (LOX IMVI melanoma) of the same compound?
Its TGI is > 10 µM.

What about the TGI (M14 melanoma) of the same compound?
Its TGI is > 10 µM.

And the TGI (MALME-3M melanoma)?
The TGI was > 10 µM.

What about the TGI (MCF7 breast) of the same compound?
The TGI was > 10 µM.

And the TGI (MDA-MB-231 breast)?
The TGI was > 10 µM.

And the TGI (MDA-MB-435)?
The TGI was > 10 µM.

What about the TGI (MDA-N) of the same compound?
Its TGI is > 10 µM.

And the TGI (MOLT-4 leukemia)?
The TGI was > 10 µM.

And the TGI (NCI-H226 lung)?
The TGI was > 10 µM.

And the TGI (NCI-H23 lung)?
The TGI was > 10 µM.

What about the TGI (NCI-H460 lung) of the same compound?
The TGI was > 10 µM.

What about the TGI (NCI/ADR-RES ovarian) of the same compound?
The TGI was > 10 µM.

And the TGI (OVCAR-3 ovarian)?
Its TGI is > 10 µM.

And the TGI (OVCAR-4 ovarian)?
Its TGI is > 10 µM.

What about the TGI (OVCAR-5 ovarian) of the same compound?
The TGI was > 10 µM.

What about the TGI (OVCAR-8 ovarian) of the same compound?
Its TGI is > 10 µM.

What about the TGI (PC-3 prostate) of the same compound?
Its TGI is > 10 µM.

And the TGI (RPMI-8226 leukemia)?
The TGI was > 10 µM.

What about the TGI (RXF 393 renal) of the same compound?
Its TGI is > 10 µM.

And the TGI (SF-268 CNS)?
Its TGI is > 10 µM.

What about the TGI (SF-295 CNS) of the same compound?
The TGI was > 10 µM.

And the TGI (SF-539 CNS)?
The TGI was > 10 µM.

And the TGI (SK-MEL-2 melanoma)?
Its TGI is > 10 µM.

What about the TGI (SK-MEL-28 melanoma) of the same compound?
The TGI was > 10 µM.

What about the TGI (SK-MEL-5 melanoma) of the same compound?
Its TGI is > 10 µM.

What about the TGI (SK-OV-3 ovarian) of the same compound?
The TGI was > 10 µM.

And the TGI (SN12C renal)?
Its TGI is > 10 µM.

And the TGI (SNB-19 CNS)?
Its TGI is > 10 µM.

What about the TGI (SNB-75 CNS) of the same compound?
The TGI was > 10 µM.

And the TGI (SR leukemia)?
The TGI was > 10 µM.

And the TGI (SW-620 colon)?
Its TGI is > 10 µM.

And the TGI (TK-10 renal)?
Its TGI is > 10 µM.

And the TGI (U251 CNS)?
Its TGI is > 10 µM.

And the TGI (UACC-257 melanoma)?
Its TGI is > 10 µM.

And the TGI (UACC-62 melanoma)?
The TGI was > 10 µM.

What about the TGI (UO-31 renal) of the same compound?
The TGI was > 10 µM.

With c1ccc2c(c1)nc1ccccn12 as the compound, how does the TGI (786-0 renal) read?
Its TGI is > 100 µM.

What about the TGI (A498 renal) of the same compound?
Its TGI is 29.5 µM.

And the TGI (A549 NSCLC)?
The TGI was > 100 µM.

And the TGI (ACHN renal)?
The TGI was > 100 µM.

And the TGI (BT-549 breast)?
The TGI was > 100 µM.

And the TGI (CCRF-CEM leukemia)?
Its TGI is > 100 µM.

And the TGI (COLO 205 colon)?
Its TGI is > 100 µM.

What about the TGI (DU-145 prostate) of the same compound?
The TGI was > 100 µM.

And the TGI (EKVX NSCLC)?
Its TGI is > 100 µM.

And the TGI (HCC-2998 colon)?
The TGI was > 100 µM.

What about the TGI (HCT-116 colon) of the same compound?
The TGI was > 100 µM.

And the TGI (HCT-15 colon)?
Its TGI is > 100 µM.

And the TGI (HL-60(TB) leukemia)?
Its TGI is > 100 µM.

And the TGI (HOP-62 NSCLC)?
The TGI was > 100 µM.

And the TGI (HOP-92 NSCLC)?
The TGI was > 100 µM.

What about the TGI (HS 578T breast) of the same compound?
Its TGI is > 100 µM.

What about the TGI (HT29 colon) of the same compound?
The TGI was > 100 µM.

And the TGI (IGROV1 ovarian)?
The TGI was > 100 µM.

What about the TGI (K-562 leukemia) of the same compound?
The TGI was > 100 µM.

And the TGI (KM12 colon)?
The TGI was > 100 µM.

And the TGI (M14 melanoma)?
The TGI was > 100 µM.

What about the TGI (MALME-3M melanoma) of the same compound?
The TGI was > 100 µM.

What about the TGI (MCF7 breast) of the same compound?
Its TGI is > 100 µM.

What about the TGI (MDA-MB-435) of the same compound?
Its TGI is > 100 µM.

And the TGI (MDA-N)?
The TGI was > 100 µM.

What about the TGI (MOLT-4 leukemia) of the same compound?
Its TGI is > 100 µM.

And the TGI (NCI-H226 lung)?
The TGI was > 100 µM.

What about the TGI (NCI-H23 lung) of the same compound?
Its TGI is > 100 µM.

What about the TGI (NCI-H460 lung) of the same compound?
Its TGI is > 100 µM.

What about the TGI (NCI/ADR-RES ovarian) of the same compound?
Its TGI is > 100 µM.

What about the TGI (OVCAR-3 ovarian) of the same compound?
The TGI was > 100 µM.

What about the TGI (OVCAR-5 ovarian) of the same compound?
The TGI was > 100 µM.

What about the TGI (OVCAR-8 ovarian) of the same compound?
Its TGI is > 100 µM.

What about the TGI (PC-3 prostate) of the same compound?
Its TGI is > 100 µM.

What about the TGI (RPMI-8226 leukemia) of the same compound?
Its TGI is > 100 µM.

What about the TGI (RXF 393 renal) of the same compound?
The TGI was > 100 µM.

And the TGI (SF-268 CNS)?
The TGI was > 100 µM.

And the TGI (SF-295 CNS)?
The TGI was > 100 µM.

What about the TGI (SF-539 CNS) of the same compound?
The TGI was > 100 µM.

And the TGI (SK-MEL-28 melanoma)?
The TGI was > 100 µM.

And the TGI (SK-MEL-5 melanoma)?
Its TGI is > 100 µM.

And the TGI (SK-OV-3 ovarian)?
The TGI was > 100 µM.

What about the TGI (SN12C renal) of the same compound?
The TGI was > 100 µM.

What about the TGI (SNB-19 CNS) of the same compound?
The TGI was > 100 µM.

What about the TGI (SNB-75 CNS) of the same compound?
Its TGI is > 100 µM.

And the TGI (SR leukemia)?
The TGI was > 100 µM.

What about the TGI (SW-620 colon) of the same compound?
The TGI was > 100 µM.

And the TGI (T-47D breast)?
Its TGI is > 100 µM.

And the TGI (TK-10 renal)?
The TGI was > 100 µM.

What about the TGI (U251 CNS) of the same compound?
The TGI was > 100 µM.

What about the TGI (UACC-257 melanoma) of the same compound?
The TGI was > 100 µM.

And the TGI (UACC-62 melanoma)?
Its TGI is > 100 µM.

What about the TGI (UO-31 renal) of the same compound?
Its TGI is > 100 µM.
